Columns and labels:
H22 transplanted tumor = details: H22 tumor-bearing mice
Method: Body weight was weighed every three days.
• Species: Rodent; Strain: BALB/c mice; Grade: SPF; Gender: Female; Age: 5-6 weeks.
• The H22 mouse hepatoma cell line was purchased from Wuhan Procell Life Technology Co., Ltd. (Wuhan, China, Contract No.: XD-000-2022-03-30-0029) and stored at −80° C. after arrival.
Ascitic tumor fluid was then diluted with matrigel to adjust the cell concentration to 2*10^7 cells/mL.

[1] = test system: Pan02 transplanted pancreatic tumor; details: Pan02 tumor-bearing mice
Method: Each mouse was subcutaneously treated with Pan02 cell suspension (5*10^5 cells) in the right axilla of the forelimb. […] Body weight was weighed every three days. The volume of the solid tumor was measured using a digital caliper every three days. The survival of animals was monitored and recorded daily.
• The Pan02 mouse pancreatic cancer line was purchased from Shanghai Enzyme Research Biotechnology Co., Ltd. (Shanghai, China, Cell line No.: CC-Y2144) and stored at −80° C. after arrival. The Pan02 cells were cultured in DMEM supplemented with 10% FBS (v/v), 100 U/ml penicillin G (Sigma-Aldrich, USA), and 100 μg/mL streptomycin (Sigma-Aldrich, USA). The cultures were maintained in a humidified incubator at 37° C. and 5% CO2.
• Different test drugs were administered intravenously (i.v.) and intraperitoneally (i.p.) once every other day at 10:00 am. A or B drugs were injected into the tail vein first, and 5-FU was injected intraperitoneally 24 h later.
• Each mouse was subcutaneously treated with 0.1 mL cell suspension (5*10^5 cells) in the right axilla of the forelimb. When the tumor size increases to 100 mm^3-150 mm^3, mice were randomly divided into treatment groups: the model group (n=10), the A group (n=10), the B group (n=10), the 5-FU group (1.5 mg/kg, n=10), the A+5-FU group (1.5 mg/kg, n=10), the B+5-FU group (1.5 mg/kg, n=10) (Table 1).
• Body weight was weighed every three days. The length and width of the solid tumor was measured with a digital caliper every three days. Tumor volume was calculated by the modified ellipsoidal formula: V =n/6 x (length x width2). The survival time of animals was monitored and recorded daily. […] The percent survival (%) was calculated using the following equations: percent survival (%)=[(10-numbers of mice died in each group)/10]*100%.

Q: For O=c1[nH]cc(F)c(=O)[nH]1 [Composition 5-FU, 5-fluorouracil], which “mortality rate of mice on the 22nd day” value (H22 transplanted tumor; 5-FU alone 2.5 mg/kg i.p. once every two days) is on record?
A: 30%

Q: What about the median survival time (H22 transplanted tumor; 5-FU alone 2.5 mg/kg, longer survival defaulted as 22 days) of the same molecule?
A: 22 days

Q: What about the “tumor volume / antitumor effect” value ([1]; 82 days, 5-FU 1.5 mg/kg) of the same molecule?
A: significantly decreased tumor volume

Q: And the “mortality rate of mice on the 82nd day” value ([1]; A or B 100 μL i.v., 5-FU 1.5 mg/kg i.p., once every other day, n=10)?
A: 90%

Q: What about the median survival time ([1]; A or B 100 μL i.v., 5-FU 1.5 mg/kg i.p., once every other day, test 82 days, longer survival defaulted as 82 days) of the same molecule?
A: 53.5 days

— patent US20250064845A1, “COMPOSITION COMPRISING FLAVIN ADENINE DINUCLEOTIDE (FAD), L-GSH, ATP AND MYRISTIC ACID, ALONE OR WITH A DRUG” (BIO EVEN, priority 2023, published 2025)
